Test results taken from patent EP0933027A1, “Methods and compositions for protecting animals and humans against attack and infestation by arthropod and helminth parasites” (American Cyanamid Company, priority 1998, dated 1999).
Read-outs that look alike come from different tables or passages of the source.

Legend:
Dermacentor variabilis = test: Contact activity against larval American dog tick (coated vial)
Description: This test is designed to evaluate the contact activity of test compounds against the American dog tick. Test compounds are dissolved in 100% acetone to 1000, 300, 100, 10, 1 and 0.1 ppm. 100 µL of each of these dilutions is added to the bottom of a 20 mL glass scintillation vial with a pipettor. The vial is allowed to dry under a fume hood for 15 minutes. The vial is then turned in its side, and 250 µL of each dilution is applied to the sides of the vial. The vial is placed on a rolling machine and allowed to roll under the hood, coating the sides of the vial, until the acetone completely evaporates. The bottom of the vial measures 4.909 cm^2 and the sides measure 4.5 cm high x 8.8 cm around, so that the total coated area of the scintillation vial measures 44.51 cm^2. The amount of test compound applied by each dilution equals 7.86, 2.36, 0.79, 0.079, 0.0079 and 0.00079 µg/cm^2, respectively. Unfed larval dog ticks are counted into the scintillation vials with a slightly damp paintbrush. Ten ticks are placed in each vial. These tests are done in replicates of two or three so that there are 20 to 30 ticks per rate/compound. Mortality readings are taken 4 and 24 hours after placing the ticks in the vials. To read the test, the vial is placed under a magnifying glass and tapped gently. […] Percent mortality is then calculated for each treatment.

Bovicola spp. = test: Coated vial test against adult biting louse; details: for mortality at 2 µg/cm2: dose 2.0 µg/cm^2; for mortality at 6.1 µg/cm2: dose 6.1 µg/cm^2
Description: This test is designed to evaluate the activity of test compounds against the biting louse. Test compounds are dissolved in 100% acetone to 300, 100 and 10 ppm. 100 µL of each of these dilutions is added to the bottom of a 20 mL glass scintillation vial with a pipettor. The vial is allowed to dry under a fume hood for 15 minutes. The bottom of the vial measures 4.909 cm^2. The amount of test compound applied by each dilution equals 6.1, 2.0 and 0.2 µg/cm^2, respectively. Included in all tests are two to three replications of untreated vials. Lice are collected from the host animal and are used within 4 hours. The lice are counted into the scintillation vials with a slightly damp paintbrush. Five adult lice are placed in each vial. These tests are done in replicates of two or three so that there are 10 to 15 lice per rate/compound. Mortality readings are taken at 2 and 4 hours after placing the lice in the vials. To read the test, the vial is placed under a magnifying glass. […] Percent mortality is then calculated for each treatment.

Ctenocephalides felis = test: Contact activity against adult cat flea, with and without piperonyl butoxide
Description: This test is designed to evaluate the contact activity of test compounds against the adult cat flea. Test compounds are dissolved in 100% acetone to 300, 100, 10 and 1 ppm. 100 µL of each of these dilutions is added to the bottom of a 20 mL glass scintillation vial with a pipettor. The vial is allowed to dry under a fume hood for 15 minutes. The bottom of the vial measures 4.909 cm^2. The amount of test compound applied by each dilution equals 6.2, 2.0, 0.2 and 0.02 µg/cm^2, respectively. Newly emerged adult cat fleas are anesthetized with CO2 to immobilize, and are counted into the scintillation vials with forceps. Five fleas are placed in each vial. These tests are done in replicates of two or three so that there are 10 to 15 fleas per rate/compound. Mortality readings are taken 4 and 24 hours after placing the fleas in the vials. […] Percent mortality is then calculated for each treatment.
This test evaluates the synergistic effect of piperonyl butoxide on the formula I compounds of this invention. Piperonyl butoxide (PBO) is added in an amount of 1.5% to a 1,000 ppm solution of a test compound in acetone. Dilutions are then made with acetone to provide solutions containing 300, 100, 10 and 1 ppm of the test compound and 0.45%, 0.15%, 0.015% and 0.0015% piperonyl butoxide, respectively. Solutions containing 1,000, 300, 100, 10 and 1 ppm of the test compound alone are used as the control. The evaluations are conducted according to the procedure described in Example 1.

[1] = system: ovine Trichstrongylus colubriformis larvae; test: Systemic activity against helminth larvae in infected Mongolian gerbils (medicated diet); type: in vivo; details: 500 ppm in feed; medicated diet for 3 days from ten days post infection; nematode burdens treated versus non-treated
Description: This test is designed to evaluate the systemic activity of test compounds against helminth parasites. Mongolian gerbils are infected orally with ovine Trichstrongylus colubrifomis larvae. Ten days post infection, the gerbils are treated with test compounds by diet incorporation. After feeding on the medicated diet for 3 days, the gerbils are sacrificed and gastrointestinal nematode populations are counted. Efficacy is determined by statistical analyses of treated versus non-treated nematode burdens.

[2] = 4 h, read-out: 4 Hour % Mortality
[3] = 24 h, read-out: 24 Hour % Mortality
[4] = 2 hours, read-out: 2 Hour % Mortality
[5] = 4 hours, read-out: 4 Hour % Mortality

F/C(=C\Cc1ccc(F)c(Oc2ccccc2)c1)C(c1ccc(Cl)cc1)C1CC1 (stereo not shown) [Compound 5, 1-[1-(p-Chlorophenyl)-2-fluoro-4-(4-fluoro-3-phenoxyphenyl)-2-butenyl]cyclopropane, (Z)-]
100%: mortality at 0.00079 µg/cm2 (Dermacentor variabilis; [2]) | mortality at 0.0079 µg/cm2 (Dermacentor variabilis; [2]) | mortality at 0.079 µg/cm2 (Dermacentor variabilis; [2]) | mortality at 0.79 µg/cm2 (Dermacentor variabilis; [2]) | mortality at 2.36 µg/cm2 (Dermacentor variabilis; [2]) | mortality at 7.86 µg/cm2 (Dermacentor variabilis; [2]) | mortality at 0.00079 µg/cm2 (Dermacentor variabilis; [3]) | mortality at 0.0079 µg/cm2 (Dermacentor variabilis; [3]) | mortality at 0.079 µg/cm2 (Dermacentor variabilis; [3]) | mortality at 0.79 µg/cm2 (Dermacentor variabilis; [3]) | mortality at 2.36 µg/cm2 (Dermacentor variabilis; [3]) | mortality at 7.86 µg/cm2 (Dermacentor variabilis; [3]) | mortality at 2 µg/cm2 (Bovicola spp.; [5]) | mortality at 6.1 µg/cm2 (Bovicola spp.; [4]) | mortality at 6.1 µg/cm2 (Bovicola spp.; [5]) | mortality at 20 µg/cm2 (Ctenocephalides felis; 4 h, dose 20.0 µg/cm^2, 0.0 % PBO (test compound alone), 4 hours, read-out: 4 Hour % Mortality) | mortality at 20 µg/cm2 (Ctenocephalides felis; 4 h, dose 20.0 µg/cm^2, 1.50 % PBO in composition, 4 hours, read-out: 4 Hour % Mortality) | mortality at 0.2 µg/cm2 (Ctenocephalides felis; 24 h, dose 0.2 µg/cm^2, 0.015 % PBO in composition, 24 hours, read-out: 24 Hour % Mortality) | mortality at 2 µg/cm2 (Ctenocephalides felis; 24 h, dose 2.0 µg/cm^2, 0.0 % PBO (test compound alone), 24 hours, read-out: 24 Hour % Mortality) | mortality at 2 µg/cm2 (Ctenocephalides felis; 24 h, dose 2.0 µg/cm^2, 0.15 % PBO in composition, 24 hours, read-out: 24 Hour % Mortality) | mortality at 6.2 µg/cm2 (Ctenocephalides felis; 24 h, dose 6.2 µg/cm^2, 0.0 % PBO (test compound alone), 24 hours, read-out: 24 Hour % Mortality) | mortality at 6.2 µg/cm2 (Ctenocephalides felis; 24 h, dose 6.2 µg/cm^2, 0.45 % PBO in composition, 24 hours, read-out: 24 Hour % Mortality) | mortality at 20 µg/cm2 (Ctenocephalides felis; 24 h, dose 20.0 µg/cm^2, 0.0 % PBO (test compound alone), 24 hours, read-out: 24 Hour % Mortality) | mortality at 20 µg/cm2 (Ctenocephalides felis; 24 h, dose 20.0 µg/cm^2, 1.50 % PBO in composition, 24 hours, read-out: 24 Hour % Mortality)
10%: mortality at 0.02 µg/cm2 (Ctenocephalides felis; 24 h, dose 0.02 µg/cm^2, 0.0 % PBO (test compound alone), 24 hours, read-out: 24 Hour % Mortality)
92%: mortality at 2 µg/cm2 (Bovicola spp.; [4])
40%: mortality at 0.2 µg/cm2 (Ctenocephalides felis; 4 h, dose 0.2 µg/cm^2, 0.015 % PBO in composition, 4 hours, read-out: 4 Hour % Mortality)
20%: mortality at 0.2 µg/cm2 (Ctenocephalides felis; 4 h, dose 0.2 µg/cm^2, 0.0 % PBO (test compound alone), 4 hours, read-out: 4 Hour % Mortality) | mortality at 2 µg/cm2 (Ctenocephalides felis; 4 h, dose 2.0 µg/cm^2, 0.15 % PBO in composition, 4 hours, read-out: 4 Hour % Mortality) | mortality at 6.2 µg/cm2 (Ctenocephalides felis; 4 h, dose 6.2 µg/cm^2, 0.45 % PBO in composition, 4 hours, read-out: 4 Hour % Mortality) | mortality at 0.2 µg/cm2 (Ctenocephalides felis; 24 h, dose 0.2 µg/cm^2, 0.0 % PBO (test compound alone), 24 hours, read-out: 24 Hour % Mortality)
70%: mortality at 0.02 µg/cm2 (Ctenocephalides felis; 24 h, dose 0.02 µg/cm^2, 0.0015 % PBO in composition, 24 hours, read-out: 24 Hour % Mortality)
30%: mortality at 2 µg/cm2 (Ctenocephalides felis; 4 h, dose 2.0 µg/cm^2, 0.0 % PBO (test compound alone), 4 hours, read-out: 4 Hour % Mortality) | mortality at 6.2 µg/cm2 (Ctenocephalides felis; 4 h, dose 6.2 µg/cm^2, 0.0 % PBO (test compound alone), 4 hours, read-out: 4 Hour % Mortality)
46%: % Efficacy [1]
0%: mortality at 0.02 µg/cm2 (Ctenocephalides felis; 4 h, dose 0.02 µg/cm^2, 0.0 % PBO (test compound alone), 4 hours, read-out: 4 Hour % Mortality) | mortality at 0.02 µg/cm2 (Ctenocephalides felis; 4 h, dose 0.02 µg/cm^2, 0.0015 % PBO in composition, 4 hours, read-out: 4 Hour % Mortality)
